Results as given in PubChem BioAssay AID1963839 (Molecular Pharmacology Branch, DTP, NCI, 2024).

System: 817829-284-R-J1-PDC complex spheroid viability
Assay: Anticancer human tumor 817829-284-R-J1-PDC patient-derived colon adenocarcinoma cell line growth inhibition [POLQ]
Conditions: for IC50: curve of first compound; for viability, T/C: stronger effect = lower value
Outline: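 Three-cell-type spheroids modelling solid tumor plus stroma served as the readout system; POL inhibitors were tested individually and in combination, concentration ranges set by clinical Cmax where known.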

[1] = second compound 0.0316 µM, first compound 0.0316 µM
[2] = second compound 0.0316 µM, first compound 0.1 µM
[3] = second compound 0.0316 µM, first compound 0.316 µM
[4] = second compound 0.0316 µM, first compound 1 µM
[5] = second compound 0.0316 µM, first compound 3.16 µM
[6] = second compound 0.0316 µM, first compound 10 µM
[7] = second compound 0.1 µM, first compound 0.0316 µM
[8] = second compound 0.1 µM, first compound 0.1 µM
[9] = second compound 0.1 µM, first compound 0.316 µM
[10] = second compound 0.1 µM, first compound 1 µM
[11] = second compound 0.1 µM, first compound 3.16 µM
[12] = second compound 0.1 µM, first compound 10 µM
[13] = second compound 0.316 µM, first compound 0.0316 µM
[14] = second compound 0.316 µM, first compound 0.1 µM
[15] = second compound 0.316 µM, first compound 0.316 µM
[16] = second compound 0.316 µM, first compound 1 µM
[17] = second compound 0.316 µM, first compound 3.16 µM
[18] = second compound 0.316 µM, first compound 10 µM
[19] = second compound 1 µM, first compound 0.0316 µM
[20] = second compound 1 µM, first compound 0.1 µM
[21] = second compound 1 µM, first compound 0.316 µM
[22] = second compound 1 µM, first compound 1 µM
[23] = second compound 1 µM, first compound 3.16 µM
[24] = second compound 1 µM, first compound 10 µM
[25] = second compound 3.16 µM, first compound 0.0316 µM
[26] = second compound 3.16 µM, first compound 0.1 µM
[27] = second compound 3.16 µM, first compound 0.316 µM
[28] = second compound 3.16 µM, first compound 1 µM
[29] = second compound 3.16 µM, first compound 3.16 µM
[30] = second compound 3.16 µM, first compound 10 µM
[31] = second compound 10 µM, first compound 0.0316 µM
[32] = second compound 10 µM, first compound 0.1 µM
[33] = second compound 10 µM, first compound 0.316 µM
[34] = second compound 10 µM, first compound 1 µM
[35] = second compound 10 µM, first compound 3.16 µM
[36] = second compound 10 µM, first compound 10 µM
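Further: spheroids exposed to compounds for 7 days.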
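Wherever viability, T/C is given: 100% = DMSO vehicle-treated spheroids.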

**Q.** Which IC50 (second compound 0.0316 µM) does the source give for CCCS(=O)(=O)Nc1ccc(F)c(C(=O)c2c[nH]c3ncc(-c4ccc(Cl)cc4)cc23)c1F + Nc1ccc(C#CCN(C(=O)Cc2ncc(C(F)(F)F)cc2C(F)(F)F)c2ccc(F)cc2)nn1 here?
**A.** 4.47 µM

**Q.** And the IC50 (second compound 0.1 µM)?
**A.** 4.54 µM

**Q.** And the IC50 (second compound 0.316 µM)?
**A.** 3.46 µM

**Q.** What about the IC50 (second compound 1 µM) of the same compound?
**A.** 3.75 µM

**Q.** What about the IC50 (second compound 3.16 µM) of the same compound?
**A.** 4.49 µM

**Q.** What about the IC50 (second compound 10 µM) of the same compound?
**A.** 3.68 µM

**Q.** What about the viability, T/C [1] of the same compound?
**A.** 90%

**Q.** What about the viability, T/C [2] of the same compound?
**A.** 75.5%

**Q.** What about the viability, T/C [3] of the same compound?
**A.** 93.2%

**Q.** And the viability, T/C [4]?
**A.** 91.3%

**Q.** What about the viability, T/C [5] of the same compound?
**A.** 67.2%

**Q.** And the viability, T/C [6]?
**A.** 9.94%

**Q.** What about the viability, T/C [7] of the same compound?
**A.** 90.4%

**Q.** What about the viability, T/C [8] of the same compound?
**A.** 55.9%

**Q.** What about the viability, T/C [9] of the same compound?
**A.** 81.7%

**Q.** What about the viability, T/C [10] of the same compound?
**A.** 74.7%

**Q.** What about the viability, T/C [11] of the same compound?
**A.** 68.2%

**Q.** What about the viability, T/C [12] of the same compound?
**A.** 10.4%

**Q.** And the viability, T/C [13]?
**A.** 85%

**Q.** What about the viability, T/C [14] of the same compound?
**A.** 85.4%

**Q.** And the viability, T/C [15]?
**A.** 83.2%

**Q.** And the viability, T/C [16]?
**A.** 75.8%

**Q.** And the viability, T/C [17]?
**A.** 53.2%

**Q.** What about the viability, T/C [18] of the same compound?
**A.** 11.5%

**Q.** What about the viability, T/C [19] of the same compound?
**A.** 84%

**Q.** And the viability, T/C [20]?
**A.** 76.7%

**Q.** And the viability, T/C [21]?
**A.** 88.2%

**Q.** And the viability, T/C [22]?
**A.** 66.3%

**Q.** What about the viability, T/C [23] of the same compound?
**A.** 58.6%

**Q.** And the viability, T/C [24]?
**A.** 13.9%

**Q.** And the viability, T/C [25]?
**A.** 95.2%

**Q.** And the viability, T/C [26]?
**A.** 62.6%

**Q.** And the viability, T/C [27]?
**A.** 78.7%

**Q.** What about the viability, T/C [28] of the same compound?
**A.** 84.2%

**Q.** What about the viability, T/C [29] of the same compound?
**A.** 66.1%

**Q.** What about the viability, T/C [30] of the same compound?
**A.** 13.2%

**Q.** And the viability, T/C [31]?
**A.** 88.9%

**Q.** What about the viability, T/C [32] of the same compound?
**A.** 64.8%

**Q.** What about the viability, T/C [33] of the same compound?
**A.** 75.8%

**Q.** What about the viability, T/C [34] of the same compound?
**A.** 75.9%

**Q.** What about the viability, T/C [35] of the same compound?
**A.** 55.6%

**Q.** And the viability, T/C [36]?
**A.** 13.6%

**Q.** For CNCc1ccc(-c2[nH]c3cc(F)cc4c3c2CCNC4=O)cc1 + Nc1ccc(C#CCN(C(=O)Cc2ncc(C(F)(F)F)cc2C(F)(F)F)c2ccc(F)cc2)nn1, which IC50 (second compound 0.0316 µM) is on record?
**A.** 6.74 µM

**Q.** And the IC50 (second compound 0.1 µM)?
**A.** 7.78 µM

**Q.** And the IC50 (second compound 0.316 µM)?
**A.** > 10 µM

**Q.** And the IC50 (second compound 1 µM)?
**A.** > 10 µM

**Q.** What about the IC50 (second compound 3.16 µM) of the same compound?
**A.** 7.27 µM

**Q.** What about the IC50 (second compound 10 µM) of the same compound?
**A.** 8.04 µM

**Q.** What about the viability, T/C [1] of the same compound?
**A.** 85.2%

**Q.** What about the viability, T/C [2] of the same compound?
**A.** 83.8%

**Q.** What about the viability, T/C [3] of the same compound?
**A.** 86.4%

**Q.** And the viability, T/C [4]?
**A.** 73.8%

**Q.** What about the viability, T/C [5] of the same compound?
**A.** 67.4%

**Q.** And the viability, T/C [6]?
**A.** 41.2%

**Q.** And the viability, T/C [7]?
**A.** 81%

**Q.** What about the viability, T/C [8] of the same compound?
**A.** 97%

**Q.** What about the viability, T/C [9] of the same compound?
**A.** 83%

**Q.** And the viability, T/C [10]?
**A.** 73.8%

**Q.** What about the viability, T/C [11] of the same compound?
**A.** 65.3%

**Q.** And the viability, T/C [12]?
**A.** 45.8%

**Q.** What about the viability, T/C [13] of the same compound?
**A.** 80.6%

**Q.** What about the viability, T/C [14] of the same compound?
**A.** 88.7%

**Q.** What about the viability, T/C [15] of the same compound?
**A.** 82.8%

**Q.** What about the viability, T/C [16] of the same compound?
**A.** 60.8%

**Q.** And the viability, T/C [17]?
**A.** 65%

**Q.** And the viability, T/C [18]?
**A.** 52.9%

**Q.** And the viability, T/C [19]?
**A.** 97.7%

**Q.** And the viability, T/C [20]?
**A.** 86.5%

**Q.** And the viability, T/C [21]?
**A.** 90.1%

**Q.** And the viability, T/C [22]?
**A.** 73.3%

**Q.** And the viability, T/C [23]?
**A.** 74.3%

**Q.** What about the viability, T/C [24] of the same compound?
**A.** 48%

**Q.** What about the viability, T/C [25] of the same compound?
**A.** 103%

**Q.** And the viability, T/C [26]?
**A.** 83.6%

**Q.** What about the viability, T/C [27] of the same compound?
**A.** 83.2%

**Q.** What about the viability, T/C [28] of the same compound?
**A.** 85.8%

**Q.** And the viability, T/C [29]?
**A.** 83.6%

**Q.** And the viability, T/C [30]?
**A.** 37.3%

**Q.** And the viability, T/C [31]?
**A.** 86.2%

**Q.** What about the viability, T/C [32] of the same compound?
**A.** 75.7%

**Q.** And the viability, T/C [33]?
**A.** 76.9%

**Q.** What about the viability, T/C [34] of the same compound?
**A.** 79.5%

**Q.** What about the viability, T/C [35] of the same compound?
**A.** 75.2%

**Q.** And the viability, T/C [36]?
**A.** 44.1%
